This assay concerns Plasmodium falciparum. The assay is described as follows: Calibr Malaria Delayed Death Assay SOP. It is filed as functional, organism-based. Particulars: for IC50: Plasmodium falciparum.

Each structure is given as a SMILES string. Where “and” joins values, the source holds several entries; their conditions need not be identical. Equal entries are not always repeated.

A word on the pIC50: it is the IC50 on a negative log10 scale, so that one unit is a factor of ten. High values mean a low IC50, low ones a high IC50. As a reminder, the IC50 is the concentration at which inhibition is half-maximal. Lower therefore signals higher potency.

Molecule `CN(Cc1ncc[nH]1)c1nc(-c2ccccn2)nc2c1CCNCC2` had a pIC50 of 6.511 and an IC50 of 292 nM.

The molecule `Cc1cn2c(n1)C(CNCc1ccc(C)s1)CCC2` (centres undefined) had a pIC50 of 6.227 and an IC50 of 722 nM. Consider `Cc1cc(CN2CCc3nc(-c4ccncc4)nc(O)c3CC2)c(C)s1`, for which the pIC50 was 5.926 and 6.258. As for `Cc1ccc(CN(Cc2cccnc2)C2CC(C)(C)NC(C)(C)C2)s1.O=C(O)CC(O)(CC(=O)O)C(=O)O`, the pIC50 came out at 6.05 and inhibition was half-maximal at 727 nM (IC50). Regarding `Cc1ccccc1CN(CCN(C)C)Cc1ccc(S(C)(=O)=O)cc1`, the pIC50 came to 5.997 and the midpoint of inhibition, the IC50, lay at 890 nM.

Molecule `CNC(=O)CCN(C)CC1(c2ccc(Br)cc2)CC1` gave a pIC50 of 6.438 and an IC50 of 340 nM. Taken in the same sequence, the figures for `Cc1ncc(CN(Cc2ccccn2)Cc2ccccc2Cl)n1C.O=C(O)CC(O)(CC(=O)O)C(=O)O` were 6.286 and 491 nM.

As to `CC(C)(C)CNCC1(O)CCCN(Cc2ccccc2F)C1=O` (centres undefined), the pIC50 is reported as 6.115 and half-maximal inhibition (IC50) required 770 nM. The matching figures for `Oc1cccc2ccc(CN3CCC4(CCNCC4)C3)nc12`: 6.257 and 736 nM. As to `Cc1cc(S(=O)(=O)N2CCC(N3CCC(O)C3)CC2)c(Cl)cc1Cl` (centres undefined), the pIC50 stood at 5.897 and the IC50 was 958 nM.

In the case of `CC(C)(C)C(=O)NCCNCc1ccc(Cl)c2cccnc12`, the pIC50 is 6.099 and the IC50 is 703 nM. The matching figures for `COc1ccccc1C1(NCc2c(C)nc3c(C)cccn23)CCCC1.Cl`: 6.178 and 748 nM. As for `NCC1[C@H]2CN(Cc3cccc(Cl)c3)C[C@@H]12` (some centres undefined), the pIC50 is reported as 6.278 and the IC50 was 553 nM. The molecule `CN(CCO)Cc1cc(Cl)ccc1OCC(O)CN1CCCCCC1` (centres undefined) had a pIC50 of 6.095 and an IC50 of 765 nM. The matching figures for `O=C(c1ccc(F)c(Cl)c1)N1C[C@@H]2CC[C@H](C1)N(Cc1ccccc1)C2`: 5.941 and 758 nM. Taken in the same sequence, the figures for `CC(N)Cc1ccccc1Sc1ccccc1.O=C(O)/C=C\C(=O)O` (centres undefined) were 6.082 and 854 nM. As to `c1ccc(C2CN(C3CC3)CC3(CCN(Cc4ncc[nH]4)CC3)C2)cc1` (centres undefined), the pIC50 is 6.233 and 5.873.

On to `CN(C)[C@@H]1CCN(S(=O)(=O)C2CC2)[C@H]1Cc1ccccc1.O=C(O)C(F)(F)F`, for which the negative-log IC50 (pIC50) was 5.682 and the IC50 was 2830 nM. The matching figures for `CCN(CC)Cc1ccccc1NC(=O)N(C)Cc1ccccc1O`: 6.076 and 765 nM.

In turn, `C[C@@H]1CN(C(=O)C2CCS(=O)(=O)CC2)CC[C@@]1(O)C1CCOCC1` showed a pIC50 of 6.055 and an IC50 of 998 nM.

`CC(C)N1CCC2(CCCN(c3nccc(C(F)(F)F)n3)C2)CC1.O=C(O)C(F)(F)F`: the pIC50 was 6.114 and inhibition was half-maximal at 550 nM (IC50). The molecule `Cl.OC(CNCc1ccccc1C(F)(F)F)c1ccccc1` (centres undefined) had a pIC50 of 6.179 and an IC50 of 709 nM. On to `CC(C)Oc1ccc(C(O)CNCc2ccccc2C(F)(F)F)cc1` (centres undefined), for which the pIC50 is recorded as 5.963 and half-maximal inhibition (IC50) was put at 1150 nM.

With `I.c1cc2c(cc1C1(CNC3=NCCN3)CCCC1)OCCO2`, the pIC50 was 6.321 and half-maximal inhibition (IC50) required 547 nM. Taken in the same sequence, the figures for `NCC(c1ccccc1)N1CCc2sccc2C1` (centres undefined) were 6.206 and 699 nM.

In turn, `CN(CCc1cccc2ccccc12)Cc1nc(N)nc(N(C)C)n1` had a pIC50 of 5.915 and an IC50 of 1240 nM. Taken in the same sequence, the figures for `CN(C[C@H]1CN2CC[C@H]1C[C@@H]2CNC(=O)c1ccco1)c1ccccc1` were 5.968 and 1130 nM. Molecule `CCC[C@H]1CN(S(=O)(=O)c2ccc(-c3c(C)noc3C)s2)C[C@@H]1N` gave a pIC50 of 6.179 and an IC50 of 798 nM. Molecule `CN(C)CC1CSCCCN1S(=O)(=O)Cc1cccc(F)c1` (centres undefined) showed a negative logarithm of the IC50 (pIC50) of 6.26 and a half-maximal inhibitory concentration (IC50) of 751 nM. Taken in the same sequence, the figures for `CN(CCO)C[C@@H]1CN(Cc2ccccc2-c2ccccc2)C[C@@H]1CO` were 6.276 and 611 nM. `CN(Cc1ccco1)C[C@H]1OC[C@@H]2CCN(Cc3ccccn3)C[C@@H]21.O=C(O)C(F)(F)F.O=C(O)C(F)(F)F.O=C(O)C(F)(F)F` had a pIC50 of 5.905 and an IC50 of 1720 nM. Molecule `COc1cccc(CNCc2ccccc2Cl)c1O` had a pIC50 of 6.206 and an IC50 of 677 nM. As for `c1ccc(Oc2nccc3occc23)c(CN2CCCCC2)c1`, the pIC50 turned out to be 6.272 and half-maximal inhibition (IC50) was put at 735 nM. The matching figures for `Cc1cc(C)n(C2CN(CC(O)c3ccc(C(F)(F)F)cc3)C2)n1` (centres undefined): 5.98 and 1030 nM. The matching figures for `O=C(O)C(F)(F)F.O=C(O)C(F)(F)F.c1cncc(N2CCCC3(CCN(CCN4CCCC4)CC3)C2)c1`: 5.977 and 1020 nM.

Regarding `c1cc(N2CCC(CN3CCOCC3)CC2)c2sccc2n1`, the pIC50 was found to be 6.066 and the IC50 is 867 nM. Taken in the same sequence, the figures for `CCN1CCCN(S(=O)(=O)c2cc3ccccc3o2)CC1` were 6.321 and 532 nM. Taken in the same sequence, the figures for `CN(Cc1cc(Cl)cc2cccnc12)CC1CCN(CCO)CC1` were 6.604 and 346 nM. Taken in the same sequence, the figures for `Cc1ccc(C2(CN3CCN(Cc4cnc(C)n4C)CC3)CC2)cc1.Cl` were 6.615 and 255 nM. Regarding `Cc1cc(CN(C)c2nc(-c3ccccn3)nc3c2CCNCC3)n[nH]1`, the pIC50 was found to be 5.981 and it took 1080 nM to reach half-maximal inhibition (IC50). The matching figures for `I.c1ccc(Sc2ccc3c(c2)OCO3)c(CNC2=NCCN2)c1`: 6.103 and 604 nM.

On to `Cc1cc(-n2cccn2)ccc1CN1CCOCC(CN(C)C)C1` (centres undefined), for which the pIC50 amounted to 6.139 and the IC50 was 673 nM. `O=C(O)C(F)(F)F.O=C(O)C(F)(F)F.O=C(O)C(F)(F)F.c1cnn(C[C@@H]2C[C@@H]3CN(CC4CC4)CC[C@@H]3N2c2nccs2)c1` had a pIC50 of 6.063 and an IC50 of 859 nM. The matching figures for `CO[C@H]1CN(C(C)C)C[C@@H]1NC(=O)c1cc(-c2ccccc2O)n[nH]1`: 6.125 and 891 nM. The matching figures for `CN1CCC(N(C)c2ccccc2CNCc2ccco2)CC1`: 6.649 and 157 nM. The molecule `Fc1ccccc1Sc1ccccc1CNC1=NCCN1.I` gave a pIC50 of 5.863 and an IC50 of 1610 nM. Taken in the same sequence, the figures for `CC(NCC1CCN(CCO)CC1)c1cccc(Cl)c1` (centres undefined) were 6.336 and 442 nM. The molecule `CN(C)[C@@H]1CCN(c2ncc(F)cn2)[C@H]1Cc1ccccc1.O=C(O)C(F)(F)F.O=C(O)C(F)(F)F` showed a pIC50 of 6.038 and an IC50 of 868 nM. For `Cl.Fc1cccc(F)c1Cn1c(C2CCNCC2)cc2cccnc21`, the pIC50 was determined as 6.523 and the IC50 is 307 nM.

In turn, `CCN1CCC2(CC1)CC(NCc1cccs1)c1ccccc1O2.O=C(O)C(F)(F)F.O=C(O)C(F)(F)F` (centres undefined) showed a pIC50 of 6.431 and an IC50 of 287 nM. The matching figures for `FC(F)(F)c1cc(C2CCNCC2)nc(-c2ccsc2)n1`: 6.171 and 626 nM.

In turn, `COc1cccc(OC)c1CN1CC(=O)N(c2ccc(C)cc2)CC1C` (centres undefined) gave a pIC50 of 5.987 and an IC50 of 877 nM. The matching figures for `CCN(C)CC1CCN(S(=O)(=O)c2cc(C)c(F)cc2Cl)C1` (centres undefined): 5.917 and 986 nM.

Regarding `Cc1cccc(NC(=O)c2cccc(OCc3nnnn3C)c2)n1`, the pIC50 was 6.563 and half-maximal inhibition (IC50) was put at 278 nM. The matching figures for `CN(C(=O)c1ccon1)[C@@H]1CCC[C@@H](Oc2ccccc2)[C@@H]1O`: 5.983 and 1190 nM. The matching figures for `Cc1cc(C)n(C2CN(CC(O)c3cc(F)ccc3F)C2)n1` (centres undefined): 6.757 and 223 nM.

Molecule `C=Cc1cccc(CN2C[C@@H](CN(C)CC)[C@@H](CO)C2)c1` gave a pIC50 of 5.976 and an IC50 of 1050 nM.

Regarding `CCC(NCc1ccccc1Cl)c1ccccc1OCC(=O)NC` (centres undefined), the pIC50 was 6.134 and 5.792. `Cc1ccsc1CN(Cc1cccnc1)C1CC(C)(C)NC(C)(C)C1.O=C(O)CC(O)(CC(=O)O)C(=O)O` showed a pIC50 of 6.511 and an IC50 of 290 nM.

Molecule `Clc1ccc(C2(CNC3=NCCN3)CCCC2)cc1.I` showed a pIC50 of 6.736 and an IC50 of 226 nM. Taken in the same sequence, the figures for `CN1CCN(Cc2ccccc2Oc2nccc3occc23)CC1` were 6.2 and 593 nM. The matching figures for `CCC(CC)(CN)NC(C)c1ccccc1` (centres undefined): 6.003 and 924 nM.

For `CC(C)n1ccnc1C1CCCN(c2ccnc3ccccc23)C1` (centres undefined), the pIC50 is 6.118 and the IC50 was 829 nM. Consider `O=C(c1ccccc1)C1CCN(Cc2cc3c(cc2O)CCC3)CC1`, for which the pIC50 is listed as 6.259 and the midpoint of inhibition, the IC50, lay at 613 nM.

`Cc1cc(N2CCC(NC(C)Cc3ccsc3)CC2)nc(C)n1` (centres undefined) showed a pIC50 of 6.277 and an IC50 of 508 nM. The matching figures for `COc1cc(C(=O)NCc2ccc3c(c2)CCCN3C)cc(OC)c1Br`: 6.846 and 251 nM. Taken in the same sequence, the figures for `CN(C)c1nc2c(c(NCc3cc(O)ncn3)n1)CCCC2` were 6.202 and 643 nM. Taken in the same sequence, the figures for `CCNc1ccnc(CN2CCCC2C(=O)Nc2nccs2)c1` (centres undefined) were 6.462 and 367 nM. As to `Nc1cc(-c2c[nH]nc2C2CCCN2CCCc2ccccc2)ccn1` (centres undefined), the pIC50 amounted to 6.087 and the IC50 is 785 nM. The matching figures for `O=C(O)C(F)(F)F.c1ccc(C[C@H]2CN(C3CCOCC3)CC[C@H]2OCC2CC2)cc1`: 6.236 and 757 nM. The matching figures for `CN1CCC(O)(CNCc2ccc(F)c(C(F)(F)F)c2)CC1`: 6.096 and 750 nM.
